# Assay results reported in patent publication US9783511B2, “Carbamate benzoxazine propionic acids and acid derivatives for modulation of RORgamma activity and the treatment of disease” (Merck Sharp & Dohme Corp., priority 2013, dated 2017).
# Biological target: human RORgammaT-Ligand Binding Domain (LBD) (Homo sapiens (Human), UniProt P51449)
# Test: RORγ-Ligand Binding Domain TR-FRET Assay (co-activator peptide SRC1_2 recruitment)
# Assay type: biochemical
# Conditions: HIS-tagged RORγ-LBD 3 nM, biotinylated SRC1 LXXLL peptide 100 nM, incubated overnight at 4° C., 665 nm/615 nm ratio
# In short: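 E. coli-expressed, Ni2+-purified HIS-tagged human RORγ-LBD at 3 nM final in 50 mM Tris pH 7.0, 50 mM KCl, 1 mM EDTA, 0.1 mM DTT, 100 μg/mL delipidated BSA. TR-FRET read-out of SRC1_2 co-activator peptide recruitment; compounds dispensed acoustically.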
# human RORgammaT-Ligand Binding Domain (LBD), sequence (P51449 269-508): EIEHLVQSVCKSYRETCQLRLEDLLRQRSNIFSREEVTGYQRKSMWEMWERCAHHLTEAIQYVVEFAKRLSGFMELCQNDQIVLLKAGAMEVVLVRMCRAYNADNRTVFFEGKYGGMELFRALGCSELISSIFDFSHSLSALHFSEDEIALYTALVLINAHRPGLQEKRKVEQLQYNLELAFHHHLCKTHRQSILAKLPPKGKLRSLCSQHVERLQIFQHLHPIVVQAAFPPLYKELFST
row,IC50 [nM],Compound
1,14.4,"CC(C)(C[C@H]1CN(S(=O)(=O)c2c(Cl)nn3c2CCCC3)c2cc(NC(=O)OC(C)(C)C(F)(F)F)ccc2O1)C(=O)O [Example 12Y, 3-[(2S)-4-[(2-chloro-4,5,6,7-tetrahydropyrazolo[1,5-a]pyridin-3-yl)sulfonyl]-6-{[(2,2,2-trifluoro-1,1-dimethylethoxy)carbonyl]ami-no}-3,4-dihydro-2H-1,4-benzoxazin-2-yl]-2,2-dimethylpropanoic acid]"
2,14.9,"Cc1nn(C(F)F)cc1S(=O)(=O)N1C[C@H](CC(C)(C)C(=O)O)Oc2ccc(NC(=O)OC(C)(C)C(F)(F)F)cc21 [Example 12o, 3-[(2S)-4-{[1-(difluoromethyl)-3-methyl-1H-pyrazol-4-yl]sulfonyl}-6-{[(2,2,2-trifluoro-1,1-dimethylethoxy)carbonyl]ami-no}-3,4-dihydro-2H-1,4-benzoxazin-2-yl]-2,2-dimethylpropanoic acid]"
3,17.5,"CC(C)(OC(=O)Nc1ccc2c(c1)N(S(=O)(=O)c1cccc(C3CC3)c1)C[C@H](CC1(C(=O)O)CC1)O2)C(F)(F)F [Example 14B, (S)-1-((4-((3-cyclopropylphenyl)sulfonyl)-6-((((1,1,1-trifluoro-2-methylpropan-2-yl)oxy)carbonyl)amino)-3,4-dihydro-2H-benzo[b][1,4]oxazin-2-yl)methyl)cyclopropanecarboxy-lic acid]"
4,36.7,"CC(C)(OC(=O)Nc1ccc2c(c1)N(S(=O)(=O)c1cccc(C3CC3)c1)C[C@@H](CC1(C(=O)O)CC1)O2)C(F)(F)F [Example 14D, (R)-1-((4-((3-cyclopropylphenyl)sulfonyl)-6-((((1,1,1-trifluoro-2-methylpropan-2-yl)oxy)carbonyl)amino)-3,4-dihydro-2H-benzo[b][1,4]oxazin-2-yl)mehtyl)cyclopropanecarboxy-lic acid]"
5,22.4,"CC(C)(OC(=O)Nc1ccc2c(c1)N(S(=O)(=O)c1ccc(F)c(C(F)(F)F)c1)C[C@H]([C@H]1C[C@H]1C(=O)O)O2)C(F)(F)F [Example 22A, (1R,2S)-2-((S)-4-((4-fluoro-3-(trifluoromethyl)phenyl)sulfonyl)-6-((((1,1,1-trifluoro-2-methylpropan-2-yl)oxy)carbonyl)amino)-3,4-dihydro-2H-benzo[b][1,4]oxazin-2-yl)cyclopropanecarboxylic acid]"
6,13.5,"CC(C)(OC(=O)Nc1ccc2c(c1)N(S(=O)(=O)c1ccc(F)c(C(F)(F)F)c1)C[C@H]([C@@H]1C[C@@H]1C(=O)O)O2)C(F)(F)F [Example 22B, (1S,2R)-2-((S)-4-((4-fluoro-3-(trifluoromethyl)phenyl)sulfonyl)-6-((((1,1,1-trifluoro-2-methylpropan-2-yl)oxy)carbonyl)amino)-3,4-dihydro-2H-benzo[b][1,4]oxazin-2-yl)cyclopropanecarboxylic acid]"
7,8.71,"CC(C)(OC(=O)Nc1ccc2c(c1)N(S(=O)(=O)c1ccc(F)c(C(F)(F)F)c1)C[C@H]([C@@H]1C[C@H]1C(=O)O)O2)C(F)(F)F [Example 22C, (1R,2R)-2-((S)-4-((4-fluoro-3-(trifluoromethyl)phenyl)sulfonyl)-6-((((1,1,1-trifluoro-2-methylpropan-2-yl)oxy)carbonyl)amino)-3,4-dihydro-2H-benzo[b][1,4]oxazin-2-yl)cyclopropanecarboxylic acid]"
8,5.87,"CC(C)(OC(=O)Nc1ccc2c(c1)N(S(=O)(=O)c1ccc(F)c(C(F)(F)F)c1)C[C@H]([C@H]1C[C@@H]1C(=O)O)O2)C(F)(F)F [Example 22D, (1S,2S)-2-((S)-4-((4-fluoro-3-(trifluoromethyl)phenyl)sulfonyl)-6-((((1,1,1-trifluoro-2-methylpropan-2-yl)oxy)carbonyl)amino)-3,4-dihydro-2H-benzo[b][1,4]oxazin-2-yl)cyclopropanecarboxylic acid]"
9,17.7,"COc1cc(S(=O)(=O)N2C[C@H](CCC(=O)O)Oc3ccc(NC(=O)OCC4(C(F)(F)F)CC4)cc32)ccc1F [Example 24A, 3-{(2S)-4-[(4-fluoro-3-methoxyphenyl)sulfonyl]-6-[({[1-(trifluoromethyl)cyclopropyl]methoxy}carbonyl)amino]-3,4-dihydro-2H-1,4-benzoxazin-2-yl}propanoic acid]"
10,12,"COc1cc(S(=O)(=O)N2C[C@H](CCC(=O)O)Oc3ccc(NC(=O)OC4(C(F)(F)F)CCC4)cc32)ccc1F [Example 24B, 3-{(2S)-4-[(4-fluoro-3-methoxyphenyl)sulfonyl]-6-[({[1-(trifluoromethyl)cyclobutyl]oxy}carbonyl)amino]-3,4-dihydro-2H-1,4-benzoxazin-2-yl}propanoic acid]"
11,10.1,"C[C@@H]1[C@H](CCC(=O)O)Oc2ccc(NC(=O)OC(C)(C)C(F)(F)F)cc2N1S(=O)(=O)c1cccc(C(F)(F)F)c1 [Example 25, 3-((2S,3R)-3-methyl-6-((((1,1,1-trifluoro-2-methylpropan-2-yl)oxy)carbonyl)amino)-4-((3-(trifluoromethyl)phenyl)sulfonyl)-3,4-dihydro-2H-benzo[b][1,4]oxazin-2-yl)propanoic acid]"
12,8200,"COc1cc(S(=O)(=O)N2c3cc(NC(=O)OC(C)(C)C(F)(F)F)ccc3O[C@H](CC(C)(C)C(=O)O)[C@@H]2C)ccc1F [Example 27A, 3-[(2R,3S)-4-[(4-fluoro-3-methoxyphenyl)sulfonyl]-3-methyl-6-{[(2,2,2-trifluoro-1,1-dimethylethoxy)carbonyl]ami-no}-3,4-dihydro-2H-1,4-benzoxazin-2-yl]-2,2-dimethylpropanoic acid]"
13,17.5,"COc1cc(S(=O)(=O)N2c3cc(NC(=O)OC(C)(C)C(F)(F)F)ccc3O[C@@H](CC(C)(C)C(=O)O)[C@H]2C)ccc1F [Example 27B, 3-[(2S,3R)-4-[(4-fluoro-3-methoxyphenyl)sulfonyl]-3-methyl-6-{[(2,2,2-trifluoro-1,1-dimethylethoxy)carbonyl]ami-no}-3,4-dihydro-2H-1,4-benzoxazin-2-yl]-2,2-dimethylpropanoic acid]"
14,10.2,"CC(C)(OC(=O)Nc1cc(F)c2c(c1)N(S(=O)(=O)c1ccc(F)c(C(F)(F)F)c1)C[C@H](CCC(=O)O)O2)C(F)(F)F [Example 28, (S)-3-(8-fluoro-4-((4-fluoro-3-(trifluoromethyl)phenyl)sulfonyl)-6-((((1,1,1-trifluoro-2-methylpropan-2-yl)oxy)carbonyl)amino)-3,4-dihydro-2H-benzo[b][1,4]oxazin-2-yl)propanoic acid]"
15,5.71,"Cc1cc(S(=O)(=O)N2C[C@H](CCC(=O)O)Oc3c(F)cc(NC(=O)OC(C)(C)C(F)(F)F)cc32)ccc1F [Example 29A, 3-[(2S)-8-fluoro-4-[(4-fluoro-3-methylphenyl)sulfonyl]-6-{[(2,2,2-trifluoro-1,1-dimethylethoxy)carbonyl]ami-no}-3,4-dihydro-2H-1,4-benzoxazin-2-yl]propanoic acid]"
16,3.9,"COc1cc(S(=O)(=O)N2C[C@H](CCC(=O)O)Oc3c(F)cc(NC(=O)OC(C)(C)C(F)(F)F)cc32)ccc1F [Example 29B, 3-[(2S)-8-fluoro-4-[(4-fluoro-3-methoxyphenyl)sulfonyl]-6-{[(2,2,2-trifluoro-1,1-dimethylethoxy)carbonyl]ami-no}-3,4-dihydro-2H-1,4-benzoxazin-2-yl]propanoic acid]"
17,9.68,"CCn1cc(S(=O)(=O)N2C[C@H](CCC(=O)O)Oc3c(F)cc(NC(=O)OC(C)(C)C(F)(F)F)cc32)c(Cl)n1 [Example 29C, 3-[(2S)-4-[(3-chloro-1-ethyl-1H-pyrazol-4-yl)sulfonyl]-8-fluoro-6-{[(2,2,2-trifluoro-1,1-dimethylethoxy)carbonyl]ami-no}-3,4-dihydro-2H-1,4-benzoxazin-2-yl]propanoic acid]"
18,7.92,"CCOc1nn(CC)cc1S(=O)(=O)N1C[C@H](CCC(=O)O)Oc2c(F)cc(NC(=O)OC(C)(C)C(F)(F)F)cc21 [Example 29D, 3-[(2S)-4-[(3-ethoxy-1-ethyl-1H-pyrazol-4-yl)sulfonyl]-8-fluoro-6-{[(2,2,2-trifluoro-1,1-dimethylethoxy)carbonyl]ami-no}-3,4-dihydro-2H-1,4-benzoxazin-2-yl]propanoic acid]"
19,10.2,"CC(C)(OC(=O)Nc1cc(F)c2c(c1)N(S(=O)(=O)c1cccc(C(F)(F)F)c1)C[C@H](CCC(=O)O)O2)C(F)(F)F [Example 29E, 3-[(2S)-8-fluoro-6-{[(2,2,2-trifluoro-1,1-dimethylethoxy)carbonyl]ami-no}-4-{[3-(trifluoromethyl)phenyl]sulfo-nyl}-3,4-dihydro-2H-1,4-benzoxazin-2-yl]propanoic acid]"
20,5.7,"CC(C)(OC(=O)Nc1cc(F)c2c(c1)N(S(=O)(=O)c1ccc(F)c(Cl)c1)C[C@H](CCC(=O)O)O2)C(F)(F)F [Example 29F, 3-[(2S)-4-[(3-chloro-4-fluorophenyl)sulfonyl]-8-fluoro-6-{[(2,2,2-trifluoro-1,1-dimethylethoxy)carbonyl]ami-no}-3,4-dihydro-2H-1,4-benzoxazin-2-yl]propanoic acid]"
21,10.1,"CC(C)(OC(=O)Nc1cc(F)c2c(c1)N(S(=O)(=O)c1ccnc(C(F)(F)F)c1)C[C@H](CCC(=O)O)O2)C(F)(F)F [Example 29H, 3-[(2S)-8-fluoro-6-{[(2,2,2-trifluoro-1,1-dimethylethoxy)carbonyl]ami-no}-4-{[2-(trifluoromethyl)pyridin-4-yl]sulfonyl}-3,4-dihydro-2H-1,4-benzoxazin-2-yl]propanoic acid]"
22,9.01,"CC(C)(OC(=O)Nc1cc(F)c2c(c1)N(S(=O)(=O)c1cncc(C(F)(F)F)c1)C[C@H](CCC(=O)O)O2)C(F)(F)F [Example 29i, 3-[(2S)-8-fluoro-6-{[(2,2,2-trifluoro-1,1-dimethylethoxy)carbonyl]ami-no}-4-{[5-(trifluoromethyl)pyridin-3-yl]sulfonyl}-3,4-dihydro-2H-1,4-benzoxazin-2-yl]propanoic acid]"
